Assay results taken from PMC5733478, “A Non-imaging High Throughput Approach to Chemical Library Screening at the Unmodified Adenosine-A3 Receptor in Living Cells” (Frontiers in Pharmacology, 2017).
Structures can show the parent of a compound that is named as a salt.

The molecules below were run against T1, human A3AR (Homo sapiens, UniProt P0DMS8) (assay: LOPAC library primary screen: single concentration (10 μM) inhibition of 25 nM CA200645 binding, PHERAstar FS). Settings: not given.
T1 construct: expressed in transfected cells
T1 sequence (P0DMS8 1-318): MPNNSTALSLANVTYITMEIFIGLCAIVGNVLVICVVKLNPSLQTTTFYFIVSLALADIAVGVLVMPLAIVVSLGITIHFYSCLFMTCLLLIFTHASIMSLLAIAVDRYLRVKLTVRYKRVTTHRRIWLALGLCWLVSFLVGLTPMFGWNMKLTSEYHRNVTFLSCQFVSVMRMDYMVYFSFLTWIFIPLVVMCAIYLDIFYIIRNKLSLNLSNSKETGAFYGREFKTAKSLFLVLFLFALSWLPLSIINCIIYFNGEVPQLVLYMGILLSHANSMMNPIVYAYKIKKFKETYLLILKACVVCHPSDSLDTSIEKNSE

Molecule | % 25 nM CA200645 binding [%]
Nc1ncnc2c1ncn2C1CCCC1 [9-cyclopentyladenine] | 102.2 ± 2.7
COc1ccc2[nH]c3c(c2c1)CCNC3 | 93.4 ± 1.1
NCCCC(=O)O [GABA] | 95.6 ± 8.2
Nc1nc2ccc(Cl)cc2c2nc(-c3ccco3)nn12 [CGS-15943] | 30.0 ± 3.0
CNCCC(Oc1ccc(C(F)(F)F)cc1)c1ccccc1 (stereo not drawn) [Fluoxetine hydrochloride] | 102.9 ± 7.1
CN(C)c1ccc(/C=C2\C(=O)Nc3ccccc32)cc1 [SU 4312] | 53.2 ± 16.7
O=c1onc2cnc3ccccc3n12 [ODQ] | 93.0 ± 5.7
Cc1nc(N=Nc2ccc(S(=O)(=O)O)cc2S(=O)(=O)O)c(COP(=O)(O)O)c(C=O)c1O [PPADS] | 106.1 ± 11.3
CC(C)c1c(C(=O)Nc2ccccc2)c(-c2ccccc2)c(-c2ccc(F)cc2)n1CC[C@@H](O)C[C@@H](O)CC(=O)O [Atorvastatin calcium salt trihydrate] | 97.7 ± 2.2
N#Cc1cc([N+](=O)[O-])c2sc(C(N)=O)[n+]([O-])c2c1 [BTO-1] | 99.9 ± 23.7
CC1(C(=O)O)C2CCC(O2)C1(C)C(=O)O (stereo not drawn) [Cantharidic Acid] | 97.5 ± 13.0
O=c1ccc2c(OCCCCc3ccccc3)c3ccoc3cc2o1 [Psora-4] | 66.4 ± 9.2
CC(C)(Oc1ccc(CCNC(=O)c2ccc(Cl)cc2)cc1)C(=O)O [Bezafibrate] | 93.0 ± 7.9
NC(=O)N1c2ccccc2C=Cc2ccccc21 [Carbamazepine] | 89.8 ± 14.0
O=C1OC(=O)[C@H]2[C@@H]1[C@@H]1CC[C@H]2O1 [Norcantharidin] | 108.5 ± 19.2
Br.CCCN(CCC)C1CCc2cccc(O)c2C1 (racemic) [(±)-8-Hydroxy-DPAT hydrobromide] | 98.2 ± 1.8
NC(Cc1cc(O)c(O)cc1O)C(=O)O (racemic) [6-Hydroxy-DL-DOPA] | 69.7 ± 9.9
Oc1ccc(-c2nc(-c3ccncc3)c(-c3ccc(F)cc3)[nH]2)cc1 [SB 202190] | 68.5 ± 12.1
COC(=O)C1=CCCN(C)C1 [Arecoline hydrobromide] | 81.8 ± 27.0
N[C@@H]1CONC1=O (racemic) [DL-Cycloserine] | 97.4 ± 8.2
CS(=O)(=O)Nc1ccc([N+](=O)[O-])cc1Oc1ccccc1 [Nimesulide] | 114.0 ± 22.1
CN(C)CCC=C1c2ccccc2COc2ccccc21 [Doxepin hydrochloride] | 110.0 ± 13.2
CN1CCc2cc(Cl)c(O)cc2[C@@H](c2ccccc2)C1.Cl [R(+)-SCH-23390 hydrochloride] | 96.2 ± 12.3
CCCC1O[C@@H]2C[C@H]3[C@@H]4CCC5=CC(=O)C=C[C@]5(C)[C@H]4[C@@H](O)C[C@]3(C)[C@]2(C(=O)CO)O1 (stereo partly drawn) [Budesonide] | 92.7 ± 8.6
N[C@@H](Cn1ccc(=O)c(O)c1)C(=O)O [L-Mimosine from Koa hoale seeds] | 106.5 ± 13.7

Molecule | % 25 nM CA200645 binding [%]
CNc1ccc2oc(C[C@H]3O[C@@]4(CC[C@H]3C)O[C@H]([C@H](C)C(=O)c3ccc[nH]3)[C@H](C)C[C@H]4C)nc2c1C(=O)O [Calcimycin] | 38.9 ± 3.3
NC(N)=NOCC[C@H](N)C(=O)O [L-Canavanine] | 101.1 ± 4.7
PD-184161 | 50.8 ± 14.3
Nc1nc(OCc2ccccc2)c2nc[nH]c2n1 [O6-benzylguanine] | 65.0 ± 6.0
Cl.Cn1c(CCCC(=O)O)nc2cc(N(CCCl)CCCl)ccc21 [Bendamustine hydrochloride] | 97.6 ± 4.1
S=c1[nH]c(-c2ccccc2)cn1-c1ccccc1 [KRM-III] | 70.4 ± 12.2
N=C(N)N1CCc2ccccc2C1 [Debrisoquin sulfate] | 81.0 ± 16.3
CCCNCC(O)COc1ccccc1C(=O)CCc1ccccc1 (stereo not drawn) [Propafenone hydrochloride] | 111.3 ± 10.1
CCCc1c(-c2ccc(O)cc2)nn(-c2ccc(O)cc2)c1-c1ccc(O)cc1 | 35.7 ± 9.6
NC(=O)OCC(COC(N)=O)c1ccccc1 [Felbamate] | 98.7 ± 4.1
CC(=O)NC[C@H]1CN(c2ccc(N3CCOCC3)c(F)c2)C(=O)O1 [Linezolid] | 100.5 ± 2.1
CC(C)NCC(O)COc1cccc2ccccc12.Cl (racemic) [(±)-Propranolol hydrochloride] | 106.0 ± 10.5
Br.CCCN(CCC)[C@@H]1CCc2ccc(O)cc2C1 [R-(+)-7-Hydroxy-DPAT hydrobromide] | 110.9 ± 7.0
Nc1ncnc2c1c(-c1ccc(Oc3ccccc3)cc1)cn2C1CCCC1 | 58.8 ± 13.2
Br.COc1ccccc1N1CCN(CCCCN2C(=O)c3ccccc3C2=O)CC1 [NAN-190 hydrobromide] | 91.1 ± 29.0
NC[C@H](O)c1ccc(O)c(O)c1.O=C(O)C(O)C(O)C(=O)O [L(-)-Norepinephrine bitartrate] | 97.7 ± 6.2
Cl.NCCCCC(=O)O [5-Aminovaleric acid hydrochloride] | 97.9 ± 5.1
C[N+](C)(C)CC(=O)O [Betaine hydrochloride] | 78.7 ± 15.6
CN(C)CCCN1c2ccccc2CCc2ccccc21 [Imipramine hydrochloride] | 99.2 ± 4.6
CC(C)(C)C(=O)Oc1ccc(S(=O)(=O)Nc2ccccc2C(=O)NCC(=O)[O-])cc1.[Na+] [Sivelestat sodium salt hydrate] | 96.6 ± 6.4
COc1cc2c(CCNC(C)=O)c[nH]c2cc1O [6-Hydroxymelatonin] | 94.1 ± 9.8
N#Cc1cc2nc([O-])c([O-])nc2cc1[N+](=O)[O-].[Na+].[Na+] [CNQX disodium] | 94.7 ± 15.8
O=[N+]([O-])c1cccc2cn[nH]c12 [7-Nitroindazole] | 126.0 ± 15.1
Nc1ccn([C@@H]2O[C@H](CO)[C@@H](O)C2(F)F)c(=O)n1 [Gemcitabine hydrochloride] | 106.0 ± 4.9

Same assay, conditions: % of control wells (1% DMSO and 25 nM CA200645); compounds at 10 µM; […]; mean ± SD, three experiments in duplicate

Molecule | % 25 nM CA200645 binding [%]
CCOC(=O)C(C)(C)Oc1ccc(Cl)cc1 [Clofibrate] | 81.3 ± 24.9

Same assay, conditions: % of control wells (1% DMSO and 25 nM CA200645); compounds at 10 µM; whole live cells expressing the A3AR; mean ± SD, three experiments in duplicate

% 25 nM CA200645 binding [%] | Molecule
98.9 ± 4.3 | CCCCNc1c(C(=O)OCC)c(C)nc2c1cnn2CC [Tracazolate]
88.5 ± 5.8 | O=C1NC(c2cccc([N+](=O)[O-])c2)=CCN1c1ccccc1O [Icilin]

Same assay, conditions: compounds tested at 10 µM; % of control wells (1% DMSO and 25 nM CA200645); […]; mean ± SD, three experiments in duplicate

Molecule | % 25 nM CA200645 binding [%]
CCCCNc1cc(C(=O)O)cc(S(N)(=O)=O)c1Oc1ccccc1 [Bumetanide] | 94.3 ± 2.5
NC(=O)c1cccc(N)c1 [3-aminobenzamide] | 91.6 ± 2.5

Same assay, conditions: compounds tested at 10 µM; % of control wells (1% DMSO and 25 nM CA200645); whole live cells expressing the A3AR; mean ± SD, three experiments in duplicate

% 25 nM CA200645 binding [%] | Molecule
112.7 ± 3.0 | O=C1NCN(c2ccccc2)C12CCN(CC1COc3ccccc3O1)CC2 (stereo not drawn) [Spiroxatrine]
102.2 ± 7.3 | C[N+]1(C)[C@@H]2CC[C@H]1C[C@@H](OC(=O)C(CO)c1ccccc1)C2 (stereo partly drawn) [Atropine methyl bromide]

Molecule | % 25 nM CA200645 binding [%]
O=C1CC[C@@]2(O)[C@H]3Cc4ccc(O)c5c4[C@@]2(CCN3CC2CC2)[C@H]1O5 [Naltrexone hydrochloride] | 102.6 ± 6.5
